From article PMC11843658 (Journal of Enzyme Inhibition and Medicinal Chemistry, 2025)
Read-outs that look alike come from different tables or passages of the source.

What was measured:
HL-60 cells = experiment: CCK8 assay, HL-60 leukaemia cells; assay type: cell-based; details: Homo sapiens, CCK8, control drug, read-out: IC50, antiproliferative activity
Procedure: (§1) C42B, PC3, Caco-2, HepG2, MCF7, HL-60, 8505 C, OVCAR-3, and A549 were cultured to screen the broad-spectrum antiproliferative activity of compound 14. For above cell lines, three thousand cells per well were seeded in the 96-well plate and treated by compound 14 for 48 or 72 h at different concentrations (0, 5, 10, and 20 μM). In addition, HepG2, HEP3B, HUH6, and HUH7 were cultured to screen its antiproliferative activity against liver cancer cell lines. For these liver cancer cell lines, two thousand cells per well were seeded in the 96-well plate and treated by compound 14 for 48 h at different concentrations (0, 0.625, 1.25, 2.5, and 5 μM). Then, 10 μl of CCK8 was added into each well and cells were incubated in a humidified atmosphere of 5% CO2 at 37 °C for 4 h. The 96-well plate was measured with a microplate reader (Bio-Tek, San Diego, CA) at a wavelength of 450 nm to calculate IC50 values.

Caco-2 cells = experiment: CCK8 assay, Caco-2 colon cancer cells; assay type: cell-based; details: Homo sapiens, CCK8, control drug, read-out: IC50, antiproliferative activity
Procedure: as §1

HepG2 cells [1] = experiment: CCK8 assay, HepG2 liver cancer cells; assay type: cell-based; details: Homo sapiens, CCK8, control drug, read-out: IC50, antiproliferative activity
Procedure: as §1

PC3 cells = experiment: CCK8 assay, PC3 prostate cancer cells; assay type: cell-based; details: Homo sapiens, PC-3, CCK8, control drug, read-out: IC50, antiproliferative activity
Procedure: as §1

OVCAR-3 cells = experiment: CCK8 assay, OVCAR-3 ovarian cancer cells; assay type: cell-based; details: Homo sapiens, CCK8, control drug, read-out: IC50, antiproliferative activity
Procedure: as §1

MCF7 cells = experiment: CCK8 assay, MCF7 breast cancer cells; assay type: cell-based; details: Homo sapiens, CCK8, control drug, read-out: IC50, antiproliferative activity
Procedure: as §1

8505 C cells = experiment: CCK8 assay, 8505 C thyroid cancer cells; assay type: cell-based; details: Homo sapiens, CCK8, control drug, read-out: IC50, antiproliferative activity
Procedure: as §1

A549 cells = experiment: CCK8 assay, A549 lung cancer cells; assay type: cell-based; details: Homo sapiens, CCK8, control drug, read-out: IC50, antiproliferative activity
Procedure: as §1

C42B cells = experiment: CCK8 assay, C42B prostate cancer cells; assay type: cell-based; details: Homo sapiens, CCK8, control drug, read-out: IC50, antiproliferative activity
Procedure: as §1

THP-1 cells = system: THP-1 cells; parameters: method as in PMID 35525212; details: read-out: IC50, antiproliferative activity; cited from earlier work
H3K4me1/2 = details: cited from earlier work
NB cells = system: NB cells; parameters: method as in PMID 36223680; details: cited from earlier work
LSD1 [2] = molecular target: T1, LSD1 (Homo sapiens, UniProt O60341); parameters: purchased Cayman Chemical (Ann Arbor, MI); details: cited from earlier work
glioblastoma cells = system: glioblastoma cells; parameters: method as in PMID 29683097; details: cited from earlier work
PC3 = system: PC3; parameters: method as in earlier work; details: PC3 cell line; read-out: IC50, antiproliferative activity; cited from earlier work
HepG2 = system: HepG2; parameters: method as in earlier work; details: HepG2 cell line; read-out: IC50, antiproliferative activity; cited from earlier work
MCF-7 = details: read-out: IC50, antiproliferative activity, cited from earlier work
[3] = system: diffuse large B-cell lymphoma cells; parameters: method as in PMID 26002965; details: cited from earlier work
KMS-12-PE cells = system: KMS-12-PE cells; parameters: method as in PMID 36476642; details: myeloma KMS-12-PE cells; read-out: IC50, antiproliferative activity; cited from earlier work
MOLP-8 cells = system: MOLP-8 cells; parameters: method as in PMID 36476642; details: myeloma MOLP-8 cells; read-out: IC50, antiproliferative activity; cited from earlier work
HCT-116 cells = system: HCT-116 cells; parameters: method as in PMID 33773285; details: read-out: IC50, antiproliferative activity; cited from earlier work
ovarian cancer cells = system: ovarian cancer cells; parameters: method as in PMID 31264855; details: cited from earlier work
various cell lines = system: various cell lines; parameters: method as in PMID 26890117; details: cited from earlier work
ACHN cells = system: ACHN cells; parameters: method as in PMID 33527838; details: cited from earlier work
HepG2 cells [4] = experiment: Xenograft study, HepG2 cells in nude mice; assay type: in vivo, BALB/c nude mice; details: 10 mg/kg by gavage every day for 21 days, nude mice bearing HepG2 cells
Procedure: Tumorigenesis in nude mice could stimulate the growth process of human tumours in the body, and could be used to develop and evaluate the effectiveness and safety of anti-cancer candidates. Therefore, xenograft studies in nude mice were performed to evaluate anticancer effects of compound 14. Animals were treated according to the protocols established by the ethics committee of The Fourth Clinical College of Xinxiang Medical University. The in vivo experiments were carried out in accordance with the approved guidelines and approved by the ethics committee of The Fourth Clinical College of Xinxiang Medical University. The number of ethics approvals is XMU-2024–01-03. All authors have adhered to the ARRIVE guidelines (https://arriveguidelines.org/). BALB/c nude mice were purchased from Beijing Huafukang Biotechnology Co., LTD (Beijing, China), and fifteen mice were used in this study (aged 6–7 weeks and weighing 20–30 g). Before the animal experiments, all nude mice were given a week to adjust to the clean, hygienic and specific-pathogen-free environment. All nude mice were taken care of instainless steel cages with a constant temperature of 60% humidity, 25 °C and a 12/12 light/dark cycle. Nude mice were fed with refreshing water and nourishing food everyday.
Then, nude mice were anaesthetised with 2% isoflurane and 0.3 l/min of oxygen by the small animal anaesthesia machine (Beijing Yi Zejia Technology Co., LTD, Beijing, China). 3 × 10^5 human liver cancer HepG2 cells were subcutaneously injected in the right armpit of mice. Until the volume of tumours reached 60–100 mm^3, all mice were randomly divided into three groups and each group had five nude mice. An amount of 60 mg/kg of compound 14, 10 mg/kg of seclidemstat and water as the control group were given by gavage every day for 21 days. Weight of mice and tumour volume were measured every 3 d. All nude mice in this xenograft studies were performed euthanizing procedures using a carbon dioxide euthanasia chamber (Shanghai Yuyan Instruments Co., Ltd, Shanghai, China). The flow rate of carbon dioxide was adjusted at 20% of the volume of the euthanasia chamber per minute. Once nude mice were unconscious, the flow rate was increased to 100% of the euthanasia chamber volume per minute. Death was confirmed by immobility, non-breathing and pupil enlargement. Tumours form BALB/c nude mice were isolated and weighed.

LSD1 [5] = molecular target: T1, LSD1; experiment: LSD1 screening assay kit (enzymatic activity); assay type: biochemical; parameters: purchased Cayman Chemical (Ann Arbor, MI); details: fluorescence, read-out: IC50 against LSD1
Procedure: After the incubation for 30 min at 37 °C, a mixture of horseradish peroxidase solution (20 μl) and fluorometric substrate solution (10 μl) was added to each well. Then, the 96-well plate was incubated for 15 min at 37 °C. Finally, the fluorescence of each well in the 96-well plate was measured at an emission wavelength of 590 nm and an excitation wavelength of 530 nm by a fluorimeter (Agilent Technologies Inc., Palo Alto, CA). Seclidemstat, a famous LSD1 inhibitor, was used as the control drug in this assay.

Compound: O=c1[nH]cc(F)c(=O)[nH]1 [5-Fluorouracil]
- IC50 (HL-60 cells): 7.25 µM
- IC50 (Caco-2 cells): > 20 µM
- IC50 (HepG2 cells [1]): 9.87 µM
- IC50 (PC3 cells): 12.3 µM
- IC50 (OVCAR-3 cells): > 20 µM
- IC50 (MCF7 cells): > 20 µM
- IC50 (8505 C cells): 12.4 µM
- IC50 (A549 cells): > 20 µM
- IC50 (C42B cells): 16.7 µM

Compound: COc1cc2nc(NCCCN(C)C)nc(NC3CCN(Cc4ccc5ccccc5c4)CC3)c2cc1OC [Compound 2]
- IC50 (THP-1 cells): 0.3 µM
- expression levels of H3K4me2 (H3K4me1/2): increases the expression levels of H3K4me2

Compound: O=S(=O)(Nc1ccc(Br)cc1-c1nn[nH]n1)c1ccc(-c2ccc(Cl)cc2)cc1 [Compound 3]
- synergistic effect with bortezomib (NB cells): displays the synergistic effect against NB cells with bortezomib

Compound: COc1ccc(CN(C(=O)CSC(=S)N2CCN(c3ccc(N)cc3)CC2)c2cc(OC)c(OC)c(OC)c2)cc1O [Compound 6]
- accumulation of H3K4me1/2 (H3K4me1/2): induces the accumulation of H3K4me1/2
- LSD1 inhibition (LSD1 [2]): inhibits LSD1

Compound: CCCCCCCCCCCCSC(=O)CC1CC(=O)NC(=O)C1 [Compound 7]
- cell cycle and clonogenic capacity (glioblastoma cells): induces cell cycle arrest and reduces clonogenic capacity

Compound: O=C1CCC(NC(=O)CSc2nnc3c(=O)[nH]c4ccccc4n23)C(=O)N1 (stereo not shown) [Compound 8]
- IC50 (PC3): 15.5 µM
- IC50 (HepG2): 9.81 µM
- IC50 (MCF-7; MCF-7 cell line): 10.1 µM

Compound: Cc1nc2cccc(N)c2c(=O)n1C1CCC(=O)NC1=O (stereo not shown) [Compound 9]
- apoptosis and proliferation [3]: induces apoptosis and inhibits proliferation

Compound: O=C1CCC(CS(=O)(=O)Cc2ccccc2)C(=O)N1 (stereo not shown) [Compound 10]
- IC50 (KMS-12-PE cells): 5.17 µM
- IC50 (MOLP-8 cells): 5.52 µM

Compound: Cc1ccc(S(=O)(=O)CCC(=O)Nc2ccc(S(N)(=O)=O)cc2)cc1 [Compound 11]
- IC50 (HCT-116 cells): 0.57 µM
- IC50 (MCF-7; MCF-7 cells): 0.67 µM

Compound: COc1cccc(-c2cccc(NC(=O)CCc3cccc4c3B(O)OC4)c2)c1 [Compound 12]
- colony formation and apoptosis (ovarian cancer cells): significantly inhibits colony formation and induces apoptosis

Compound: COc1cc(NC(=O)CCSc2nc3ccc(Cl)cc3c(=O)n2-c2ccc(F)cc2)cc(OC)c1OC [Compound 13]
- anticancer effects (various cell lines): exhibits extensive-spectrum anticancer effects

Compound: O=C(c1ccc(OCCN2CCCCC2)cc1)c1c(-c2ccc(O)cc2)sc2cc(O)ccc12 [Raloxifene]
- migration of ACHN cells (ACHN cells): inhibits migration against ACHN cells

Compound: C/C(=N\NC(=O)c1cccc(S(=O)(=O)N2CCN(C)CC2)c1)c1cc(Cl)ccc1O [Seclidemstat]
- growth of subcutaneous tumours (HepG2 cells [4]): inhibited the growth of subcutaneous tumours
- IC50 (LSD1 [5]): 0.02 ± 0.01 µM
